Each block holds one compound with its values, some of them ahead of it.
Legend:
Rat C6 glioma cells = assay: Accumulation of CGP74588 into rat C6 glioma cells; assay type: cell-based; conditions: for average fold increase of CGP74588 accumulation: 15 min pre-incubation, 1 min incubation with CGP74588, rat C6 cells
Protocol: Rat C6 glioma cells are used as a model for glioma in in vitro or in vivo studies, to investigate the effect of this combination on cell proliferation.
Rat C6 glioma cells are maintained in high glucose Dulbecco's modified medium supplemented with 10% fetal calf serum and […] L-Glutamine in a humidified atmosphere of 95% air-5% CO2. All accumulation assays are conducted on cultures at confluence. For this purpose, the cells are seeded on 24-well plates at a density of 100×10^3 cells/cm^2 and left to proliferate in culture medium for 48 h.
For competition assays, the cultures are pre-incubated with various concentrations of the different competitors for 15 min. […] The cellular accumulation of 1.5 μM CGP74588 is also studied in C6 cells that have been pre-incubated with hydroxyurea (1, 10, 100 or 1000 μM) for 48 h.

BCRP = molecular target: T1, BCRP (Homo sapiens, UniProt Q9UNQ0); assay: BCRP efflux pump inhibition / transport
T1 sequence (Q9UNQ0 1-655): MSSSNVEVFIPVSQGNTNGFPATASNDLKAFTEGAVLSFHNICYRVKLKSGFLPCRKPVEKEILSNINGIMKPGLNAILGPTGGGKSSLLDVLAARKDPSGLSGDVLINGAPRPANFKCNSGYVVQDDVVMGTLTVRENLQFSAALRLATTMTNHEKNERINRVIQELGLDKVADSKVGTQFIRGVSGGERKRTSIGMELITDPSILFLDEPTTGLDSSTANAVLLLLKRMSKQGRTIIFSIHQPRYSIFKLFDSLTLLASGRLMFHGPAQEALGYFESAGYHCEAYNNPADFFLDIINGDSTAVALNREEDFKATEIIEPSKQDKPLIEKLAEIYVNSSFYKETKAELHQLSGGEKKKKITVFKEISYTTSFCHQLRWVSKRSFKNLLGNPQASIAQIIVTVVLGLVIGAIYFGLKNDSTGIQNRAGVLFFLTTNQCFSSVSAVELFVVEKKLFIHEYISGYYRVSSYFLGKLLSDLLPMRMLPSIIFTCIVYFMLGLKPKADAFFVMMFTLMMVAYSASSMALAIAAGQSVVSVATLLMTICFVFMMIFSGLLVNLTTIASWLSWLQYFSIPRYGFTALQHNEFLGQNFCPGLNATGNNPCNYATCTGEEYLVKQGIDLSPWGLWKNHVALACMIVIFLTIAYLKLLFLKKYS

[1] = Hanover Wistar, rat, in vivo, iv
[2] = test system: P-glycoprotein and Breast-Cancer Resistance Protein (suggested by experiments in mdr1a1b(-/-) mice); assay: in vivo; conditions: FVB, mouse
in vivo = conditions: Hanover Wistar, rat, iv, 12.5 mg/kg
[3] = FVB wild-type mice; co-perfusion of valspodar 10 μM with imatinib 0.5 μM
[4] = Blood and brain pharmacokinetics in Hanover Wistar rats after intravenous [14C]STI571 with or without PSC833
[5] = Concentration of STI571 in brain, Mean
[6] = Concentration of STI571 in brain, individual data

Structure (SMILES): COc1cc2c(cc1OC)CN(CCc1ccc(NC(=O)c3cccc4c(=O)c5cccc(OC)c5[nH]c34)cc1)CC2 [elacridar]
average fold increase of CGP74588 accumulation (Rat C6 glioma cells; inhibitor 1 μM): 1.7 fold | average fold increase of CGP74588 accumulation (Rat C6 glioma cells; inhibitor 10 μM): 2.3 fold

Structure (SMILES): Cl.Cl.Cl.O[C@@H](COc1cccc2ncccc12)CN1CCN(C2c3ccccc3[C@@H]3[C@H](c4ccccc42)C3(F)F)CC1 (stereo partly drawn) [zosuquidar, 1-[4-(1,1-difluor-1,1aR,6S,10bS-tetrahydrodibenzo[a,e]-cyclo-propa[c]cyclohepten-6-yl)piperazin-1-yl]-3-(chinolin-5-yloxy)-2(R)-propanol-trihydrochloride]
average fold increase of CGP74588 accumulation (Rat C6 glioma cells; inhibitor 1 μM): 1.7 fold | average fold increase of CGP74588 accumulation (Rat C6 glioma cells; inhibitor 10 μM): 2.3 fold

The next lines start with results.

BCRP inhibition (BCRP): not | transport by efflux pump (BCRP): dominated by BCRP
Structure (SMILES): Cc1ccc(NC(=O)c2ccc(CN3CCNCC3)cc2)cc1Nc1nccc(-c2cccnc2)n1 [CGP74588, N-{5-[4-(piperazino-methyl)-benzoylamido]-2-methylphenyl}-4-(3-pyridyl)-2-pyrimidine-amine]
accumulation in rat C6 cells (Rat C6 glioma cells; CGP74588 0.5-50 μM): concentration dependant

time post dose at which brain Cmax is reached [1]: 15 min | Km [2]: 5 to 10 µM | Cmax (in vivo): 893 ng/g | Tmax (in vivo): 15 min | concentration at 0.25 h (in vivo; [5]): 893 ng/g | concentration at 0.5 h (in vivo; [5]): 533 ng/g | concentration at 1 h (in vivo; [5]): 550 ng/g | concentration at 2 h (in vivo; [5]): 333 ng/g | concentration at 4 h (in vivo; [5]): 115 ng/g | concentration at 8 h (in vivo; [5]): 38 ng/g | concentration at 1 h (in vivo; [6]): 540 ng/g | concentration at 2 h (in vivo; [6]): 402 ng/g | concentration at 4 h (in vivo; [6]): 102 ng/g | concentration at 8 h (in vivo; [6]): 52 ng/g
Structure (SMILES): Cc1ccc(NC(=O)c2ccc(CN3CCN(C)CC3)cc2)cc1Nc1nccc(-c2cccnc2)n1 [STI571, N-{5-[4-(4-methyl-piperazino-methyl)-benzoylamido]-2-methylphenyl}-4-(3-pyridyl)-2-pyrimidine-amine]

effect on distribution of imatinib into the brain [3]: markedly enhance | effect on the elimination slope of unchanged STI571 from brain to blood ([4]; 12.5 mg/kg STI571 and 10 mg/kg PSC833 i.v.): does not significantly modify | impact on the plasma pharmacokinetics of imatinib ([4]; valspodar 10 mg/kg i.v. with imatinib 12.5 mg/kg i.v.): no significant impact
Structure (SMILES): C/C=C/C[C@@H](C)C(=O)[C@H]1C(=O)N[C@@H](C(C)C)C(=O)N(C)CC(=O)N(C)[C@@H](CC(C)C)C(=O)N[C@@H](C(C)C)C(=O)N(C)[C@@H](CC(C)C)C(=O)N[C@@H](C)C(=O)N[C@H](C)C(=O)N(C)[C@@H](CC(C)C)C(=O)N(C)[C@@H](CC(C)C)C(=O)N(C)[C@@H](C(C)C)C(=O)N1C [valspodar, [3′-desoxy-3′-oxo-MeBmt]^1-[Val]^2-Ciclosporin A]
average fold increase of CGP74588 accumulation (Rat C6 glioma cells; inhibitor 1 μM): 1.7 fold | average fold increase of CGP74588 accumulation (Rat C6 glioma cells; inhibitor 10 μM): 2.3 fold
